{"source": "patent EP3375430A1", "about": "“FRAGRANCE COMPOSITIONS” (Takasago International Corporation, priority 2017, dated 2018)", "key": {"[1]": {"test": "Amount of fragrance ingredients retained on paper blotter after evaporation (ethanol extraction, GC-MS)", "type": "physicochemical", "conditions": "Table 9", "method_in_brief": "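100 µL of fragrance formulation applied to paper blotters kept at 32°C open to air; at each time three blotters extracted 1 h in ethanol with methyl decanoate internal standard and analysed by GC-MS (HP-5MS, 50–280°C). Amounts averaged over triplicates and expressed as percent of time-zero level.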"}, "[2]": {"test": "Headspace concentration of fragrance ingredients over blotter (thermal desorption GC-MS)", "type": "physicochemical", "conditions": "COM1 dosed at 20 wt%; up to 8 hours; Figures 8 to 10", "method_in_brief": "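Fragrance (100µL) applied to a 10 cm perfumers' blotter held on a 32°C hot plate, equilibrated 5 min; headspace drawn through Tenax TA tubes at 17mL/min until 280mL collected, repeated at later sampling times. Tubes thermally desorbed splitless onto HP-5MS column, GC-MS detection, mass range 35 to 350.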"}}}
{"molecule": "C=CC(C)(O)CCC=C(C)CC", "note": "(mixture of isomers) [Ethyl Linalool, Ethyl linalool]", "values": [{"measurement": "amount of fragrance ingredient retained on blotter (percentage of the initial amount)", "setting": "[1]; fragrance COM1 in C5, T0 + 15 min", "result": 80.96, "unit": "%"}, {"measurement": "amount of fragrance ingredient retained on blotter (percentage of the initial amount)", "setting": "[1]; fragrance COM1 in C5, T0 + 480 min", "result": 8.4, "unit": "%"}, {"measurement": "amount of fragrance ingredient retained on blotter (percentage of the initial amount)", "setting": "[1]; fragrance COM1 in C5, T0 +1440 min", "result": 2.22, "unit": "%"}, {"measurement": "amount of fragrance ingredient retained on blotter (percentage of the initial amount)", "setting": "[1]; fragrance COM1 in C6, T0 + 15 min", "result": 70.8, "unit": "%"}, {"measurement": "amount of fragrance ingredient retained on blotter (percentage of the initial amount)", "setting": "[1]; fragrance COM1 in C6, T0 + 480 min", "result": 6.9, "unit": "%"}, {"measurement": "amount of fragrance ingredient retained on blotter (percentage of the initial amount)", "setting": "[1]; fragrance COM1 in C6, T0 +1440 min", "result": 2.6, "unit": "%"}, {"measurement": "amount of fragrance ingredient retained on blotter (percentage of the initial amount)", "setting": "[1]; fragrance COM1 in EdT2, C5 or C6, T0, set at 100% (normalisation)", "result": 100, "unit": "%"}, {"measurement": "amount of fragrance ingredient retained on blotter (percentage of the initial amount)", "setting": "[1]; fragrance COM1 in EdT2, T0 + 15 min", "result": 67.48, "unit": "%"}, {"measurement": "amount of fragrance ingredient retained on blotter (percentage of the initial amount)", "setting": "[1]; fragrance COM1 in EdT2, T0 + 480 min", "result": 9.91, "unit": "%"}, {"measurement": "amount of fragrance ingredient retained on blotter (percentage of the initial amount)", "setting": "[1]; fragrance COM1 in EdT2, T0 +1440 min", "result": 7.26, "unit": "%"}, {"measurement": "headspace concentration in composition C8 compared to control EdT4", "setting": "[2]", "result": "significantly higher"}]}
